Tests used:
[1] = test system: SF268-MCAT_Luc_dox-i-shYAPLevy (Clone 13) cells; assay: Proliferation assay (resazurin/AlamarBlue), SF268; type: cell-based; conditions: SF268, 72 hours
Excerpt: (§1) NCI-H2052 mesothelioma cells (RRID: CVCL_1518) bearing Hippo-pathway inactivating mutations upstream of YAP (homozygous deletion of LATS2 and mutation of NF2) were obtained from ATCC (American Type Culture Collection), while SF268 glioma cells (RRID: CVCL_1689) overexpressing YAP due to genomic amplification were obtained from the NCI (National Cancer Institute). MKN-45 gastric adenocarcinoma cells (RRID: CVCL_0434) genomically deleted for YAP were obtained from the JCRB (Japanese Collection of Research Bioresources) Cell Bank.
(§2) Stock solutions of compounds were prepared at a concentration of 10 mM in DMSO and stored at 4° C. Where necessary to afford a full dose-response curve, the stock solutions were pre-diluted in DMSO to 1′000-fold the desired reduced start concentration. On the day after cell seeding, eleven 2-fold serial dilutions of each compound were dispensed directly into the cell assay plates using a HP 300D non-contact Digital Dispenser (TECAN). The final concentration of DMSO was normalized to 0.1% in all wells.
(§3) After incubation for 72 hours at 37° C., compound-mediated modulation of cell viability was quantified as follows. […] To enable differentiation of cytotoxic from cytostatic compound effects, the number of viable cells on the day of compound addition (day 0) was assessed in a separate cell plate and used to assess the extent of cell viability suppression as described in the following section.
(§4) For data analysis, the assay background value determined in wells containing medium, but no cells, was subtracted from all data points.
(§5) The extent of growth inhibition and potential cell kill was assessed by comparing the resorufin levels in compound-treated cells with those present at the time of compound addition. To this end, the following conditional concept was programmatically applied in HELIOS to calculate % growth (% G) for each compound-treated well: % G=(T−V0)/V0))*100 when T<V0, and % G=(T−V0)/(V−V0)))*100 when T≥V0, where V0 is the viability level at time of compound addition, while V and T represent vehicle-control and compound-treated viability levels, respectively, at the end of the compound incubation. 100%, 0% and −100% signify absence of growth inhibition, growth stasis, and complete cell kill, respectively. Compound concentrations leading to half-maximal growth inhibition (GI50) and residual cell viability at the highest tested compound concentration (Data(cmax), expressed in percent) were routinely calculated.

[2] = test system: YAP-dependent transcription in NCI-H2052 Tet-On shYAP_2371 pLenti6 MCAT_Luc cells; assay: YAP reporter gene activity assay (MCAT-Luc), NCI-H2052; type: cell-based; conditions: 24 hrs
MKN-45/Ubc-luc cells = assay: Proliferation assay (resazurin/AlamarBlue), MKN-45; type: cell-based; conditions: MKN-45, 72 hours
Excerpt: as §1
As a specificity control, MKN-45 cells were stably transduced with a Ubc-Luc reporter construct, in which constitutive expression of firefly luciferase is driven by the promoter of the ubiquitin C housekeeping gene.
as §2, §3, §4, §5

[3] = test system: MKN-45/Ubc-luc cells (unspecific inhibition of luciferase expression or activity); assay: Reporter gene assay specificity control (Ubc-Luc), MKN-45; type: cell-based; conditions: MKN-45/Ubc-luc specificity control, 24 hrs
Excerpt: as §1
As a specificity control, MKN-45 cells were stably transduced with a Ubc-Luc reporter construct, in which constitutive expression of firefly luciferase is driven by the promoter of the ubiquitin C housekeeping gene. The resulting cell line, MKN-45/Ubc-luc, was selected and maintained in growth medium (RPMI 1640 (Amimed Cat #1-41F01-I), 2 mM L-Glutamine (Amimed Cat #5-10K50-H), 10% fetal calf serum (Amimed Cat #2-01F30-I Lot K08815P), 1% MEM Non-essential amino acids (Amimed Cat #5-13K00-H), 1× Penicillin/Streptomycin (Amimed Cat #4-01F00-H)) containing 1 μg/ml blasticidin (Gibco Cat #A11139-03).
as §2
The ability of compounds to inhibit YAP-dependent transcription was assessed in NCI-H2052 Tet-On shYAP_2371 pLenti6 MCAT_Luc and SF268-MCAT_Luc, dox-i-shYAPLevy (Clone 13) cells, while specificity (lack of unspecific inhibition of luciferase expression or activity) was assessed in MKN-45/Ubc-luc cells. The individual cell lines were seeded at 2′500 cells/20 μl/well into white-wall, clear-bottom 384-well plates (Greiner, Cat #781098) and incubated over night at 37° C. prior to addition of serial compound dilutions as described above. Following incubation for 24 hrs at 37° C., compound-mediated modulation of reporter-gene activity was quantified 5 min after addition 20 μL […] BrightGlo (Promega Cat #E2620), by measuring luminescence intensity on a multi-mode plate-reader (TECAN) with an integration time of 100 ms.
as §4

[4] = test system: YAP-dependent transcription in SF268-MCAT_Luc_dox-i-shYAPLevy (Clone 13) cells; assay: YAP reporter gene activity assay (MCAT-Luc), SF268; type: cell-based; conditions: SF268 MCAT_Luc, 24 hrs
[5] = biological target: Avi-humanTEAD4^217-434 / Cy5 labeled humanYAP^60-100 (Homo sapiens (Human), UniProt Q15561); assay: In-vitro biochemical TR-FRET assay (TEAD4/YAP); type: binding; conditions: 1 h at room temperature
Sequence of Avi-humanTEAD4^217-434 / Cy5 labeled humanYAP^60-100 (Q15561 217-434): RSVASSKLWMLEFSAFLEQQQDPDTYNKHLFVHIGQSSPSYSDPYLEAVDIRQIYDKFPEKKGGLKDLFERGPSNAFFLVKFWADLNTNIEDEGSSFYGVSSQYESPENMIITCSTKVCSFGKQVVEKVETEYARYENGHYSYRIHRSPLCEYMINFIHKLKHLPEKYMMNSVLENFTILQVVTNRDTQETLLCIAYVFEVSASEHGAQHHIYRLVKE
Description: N-terminus Cy5 labeled humanYAP^60-100 (20 nM) was then added to this preparation. Compounds were dissolved at 10 mM in 100% DMSO and serial dilutions were made in 100% DMSO. The diluted compound solutions were incubated in white 384-well plates (Greiner Bio-One) for 1 h at room temperature with the above described mix. The final DMSO concentration present in the assay was 1%. […] The IC50 values were estimated by fitting the data by nonlinear fit regression (GraphPad Prism).

[6] = test system: NCI-H2052 Tet-On shYAP_2371 pLenti6 MCAT_Luc cells; assay: Proliferation assay (resazurin/AlamarBlue), NCI-H2052; type: cell-based; conditions: NCI-H2052, 72 hours
Excerpt: as §1, §2, §3, §4, §5

| IC50 ([2]; Homo sapiens) | GI50 (MKN-45/Ubc-luc cells; Homo sapiens) | IC50 ([3]; Homo sapiens) | IC50 ([4]; Homo sapiens, SF-268) | IC50 [5] | GI50 ([6]; Homo sapiens) | IC50 [2] | GI50 (MKN-45/Ubc-luc cells) | IC50 [3] | IC50 [4] | GI50 [6] | SMILES | GI50 ([1]; Homo sapiens, SF-268) | GI50 [1] |
| --- | --- | --- | --- | --- | --- | --- | --- | --- | --- | --- | --- | --- | --- |
| 5900 nM | > 20000 nM | > 20000 nM | 2750 nM | 23 nM | 6290 nM |  |  |  |  |  | CNC(=O)c1cnc(OCCOCCn2cc(-c3ccc4c(c3)CN(C3CCC(=O)NC3=O)C4=O)nn2)c(F)c1-c1c(Cl)c(F)cc2c1C[C@](c1ccccc1)([C@@H]1CCCN1)O2 (stereo partly drawn) [Example 32, 4-((2S,4S)-5-Chloro-6-fluoro-2-phenyl-2-((S)-pyrrolidin-2-yl)-2,3-dihydrobenzofuran-4-yl)-6-(2-(2-(4-(2-(2,6-dioxopiperidin-3-yl)-1-oxoisoindolin-5-yl)-1H-1,2,3-triazol-1-yl)ethoxy)ethoxy)-5-fluoro-N-methylnicotinamide] | > 20000 nM |  |
| 3350 nM | 12400 nM | 15900 nM | 420 nM | 120 nM | 6050 nM |  |  |  |  |  | COc1ccc(C(=O)NCCCCCn2cc(-c3ccc4c(c3)CN(C3CCC(=O)NC3=O)C4=O)nn2)c(-c2c(Cl)c(F)cc3c2C[C@@](CN)(c2ccccc2)O3)c1F (stereo partly drawn) [Example 37, 2-((2S,4S)-2-(aminomethyl)-5-chloro-6-fluoro-2-phenyl-2,3-dihydrobenzofuran-4-yl)-N-(5-(4-(2-(2,6-dioxopiperidin-3-yl)-1-oxoisoindolin-5-yl)-1H-1,2,3-triazol-1-yl)pentyl)-3-fluoro-4-methoxybenzamide] | 14900 nM |  |
|  |  |  |  | 1.9 nM |  | 40 nM | 4110 nM | 14300 nM | 33 nM | 27 nM | COc1ccc(C(N)=O)c(-c2c(Cl)c(F)cc3c2[C@H](C)[C@@](CN[C@H]2CC[C@H](C(=O)OC)CC2)(c2ccccc2)O3)c1F [C-I-k, Methyl (1S,4r)-4-((((2S,3S,4S)-4-(6-carbamoyl-2-fluoro-3-methoxyphenyl)-5-chloro-6-fluoro-3-methyl-2-phenyl-2,3-dihydrobenzofuran-2-yl)methyl)amino)cyclohexane-1-carboxylate] |  | 390 nM |
| 130 nM | > 2000 nM | > 2000 nM | 180 nM | 2.2 nM | 170 nM |  |  |  |  |  | COc1ccc(C(N)=O)c(-c2c(Cl)c(F)cc3c2[C@H](C)[C@@](CN[C@H]2CC[C@H](C(=O)O)CC2)(c2ccccc2)O3)c1F (atropisomer, axis not shown) [C-I, (1S,4r)-4-((((2S,3S,4S)-4-(6-carbamoyl-2-fluoro-3-methoxyphenyl)-5-chloro-6-fluoro-3-methyl-2-phenyl-2,3-dihydrobenzofuran-2-yl)methyl)amino)cyclohexane-1-carboxylic acid] | > 2000 nM |  |
| 49 nM | > 20000 nM | > 20000 nM | 1.7 nM | 1.1 nM | 140 nM |  |  |  |  |  | COc1ccc(C(=O)N2CCC(OC3CCN(CCNC(=O)[C@H]4CC[C@H](NC[C@]5(c6ccccc6)Oc6cc(F)c(Cl)c(-c7c(C(N)=O)ccc(OC)c7F)c6[C@@H]5C)CC4)CC3)CC2)cc1N1CCC(=O)NC1=O (atropisomer, axis not shown) [Example 4, 2-((2S,3S,4S)-5-chloro-2-((((1r,4S)-4-((2-(4-((1-(3-(2,4-dioxotetrahydropyrimidin-1(2H)-yl)-4-methoxybenzoyl)piperidin-4-yl)oxy)piperidin-1-yl)ethyl)carbamoyl)cyclohexyl)amino)methyl)-6-fluoro-3-methyl-2-phenyl-2,3-dihydrobenzofuran-4-yl)-3-fluoro-4-methoxybenzamide] | 33 nM |  |
| 120 nM | > 20000 nM | > 20000 nM | 3.1 nM | 1.6 nM | 310 nM |  |  |  |  |  | COc1ccc(C(=O)N2CCC(OC3CN(C(=O)[C@H]4CC[C@H](NC[C@]5(c6ccccc6)Oc6cc(F)c(Cl)c(-c7c(C(N)=O)ccc(OC)c7F)c6[C@@H]5C)CC4)C3)CC2)cc1N1CCC(=O)NC1=O (atropisomer, axis not shown) [Example 8, 2-((2S,3S,4S)-5-chloro-2-((((1r,4S)-4-(3-((1-(3-(2,4-dioxotetrahydropyrimidin-1(2H)-yl)-4-methoxybenzoyl)piperidin-4-yl)oxy)azetidine-1-carbonyl)cyclohexyl)amino)methyl)-6-fluoro-3-methyl-2-phenyl-2,3-dihydrobenzofuran-4-yl)-3-fluoro-4-methoxybenzamide] | 120 nM |  |
| 0.66 nM | > 2000 nM | > 2000 nM | 0.17 nM | 4 nM | 3.8 nM |  |  |  |  |  | COc1ccc(C(=O)N2CCC(CCC3CCN(C(=O)[C@H]4CC[C@H](NC[C@]5(c6ccccc6)Oc6cc(F)c(Cl)c(-c7c(C(N)=O)ccc(OC)c7F)c6[C@@H]5C)CC4)CC3)CC2)cc1N1CCC(=O)NC1=O (atropisomer, axis not shown) [Example 27, 2-((2S,3S,4S)-5-chloro-2-((((1r,4S)-4-(4-(2-(1-(3-(2,4-dioxotetrahydropyrimidin-1(2H)-yl)-4-methoxybenzoyl)piperidin-4-yl)ethyl)piperidine-1-carbonyl)cyclohexyl)amino)methyl)-6-fluoro-3-methyl-2-phenyl-2,3-dihydrobenzofuran-4-yl)-3-fluoro-4-methoxybenzamide] | 5 nM |  |
| 2800 nM | > 20000 nM | > 20000 nM | 3530 nM | 6.9 nM | 2270 nM |  |  |  |  |  | CNC(=O)c1cnc(OCCOCCOCCn2cc(-c3cccc(N4CCC(=O)NC4=O)c3)nn2)c(F)c1-c1c(Cl)c(F)cc2c1C[C@](c1ccccc1)([C@@H]1CCCN1)O2 (atropisomer, axis not shown) [Example 34, 4-((2S,4S)-5-chloro-6-fluoro-2-phenyl-2-((S)-pyrrolidin-2-yl)-2,3-dihydrobenzofuran-4-yl)-6-(2-(2-(2-(4-(3-(2,4-dioxotetrahydropyrimidin-1(2H)-yl)phenyl)-1H-1,2,3-triazol-1-yl)ethoxy)ethoxy)ethoxy)-5-fluoro-N-methylnicotinamide] | 19300 nM |  |
